Assay results published in patent publication US7063946B2, “Methods, reagents, kits and apparatus for protein function analysis” (Meso Scale Technologies, LLC., priority 2001, dated 2006).

Key:
[1] = tested on: tyrosine kinases reported to be the target of each inhibitor; settings: read-out: reported IC50 concentration (1× concentration); for the kinase reported to be the target of the inhibitor; cited from earlier work
Fgfr4 = molecular target: T1, Fgfr4 (Mus musculus, UniProt Q03142); experiment: Kinase inhibitor profiling, pEY phosphorylation; format: biochemical
T1 construct: specificity data for proteins generated from a library of eighteen full-length clones; biotin on random lysines (biotin-Lys-tRNA); host or cells: rabbit reticulocyte lysate, coupled transcription/translation (TnT, Promega)
T1 sequence (Q03142 17-799): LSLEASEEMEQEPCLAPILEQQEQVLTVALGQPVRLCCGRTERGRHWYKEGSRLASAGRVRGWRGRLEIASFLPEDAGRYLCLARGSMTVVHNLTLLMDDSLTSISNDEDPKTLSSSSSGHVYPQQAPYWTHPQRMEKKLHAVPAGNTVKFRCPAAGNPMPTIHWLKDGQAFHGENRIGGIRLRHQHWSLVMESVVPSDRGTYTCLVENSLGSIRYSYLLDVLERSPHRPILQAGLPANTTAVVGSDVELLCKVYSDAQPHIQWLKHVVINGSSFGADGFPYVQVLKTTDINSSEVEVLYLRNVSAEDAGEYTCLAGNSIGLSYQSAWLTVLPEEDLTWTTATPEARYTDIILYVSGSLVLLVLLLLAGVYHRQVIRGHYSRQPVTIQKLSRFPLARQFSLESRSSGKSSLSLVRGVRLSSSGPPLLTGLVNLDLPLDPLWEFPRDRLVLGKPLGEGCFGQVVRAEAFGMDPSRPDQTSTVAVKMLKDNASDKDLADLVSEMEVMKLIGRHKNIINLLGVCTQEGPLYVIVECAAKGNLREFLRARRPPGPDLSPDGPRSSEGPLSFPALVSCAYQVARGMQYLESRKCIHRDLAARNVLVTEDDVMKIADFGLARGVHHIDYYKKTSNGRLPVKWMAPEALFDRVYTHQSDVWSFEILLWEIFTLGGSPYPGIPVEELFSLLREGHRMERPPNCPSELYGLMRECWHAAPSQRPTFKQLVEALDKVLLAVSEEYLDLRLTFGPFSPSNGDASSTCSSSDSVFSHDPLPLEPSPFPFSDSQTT
Procedure: (§1) Proteins were produced in an in vitro transcription and translation reaction. […] The unbound components of the reaction containing endogenous kinases were removed by three washes with TT-buffer (25 mM Tris-HCl buffer pH 7.4 and 0.004% Triton), two five minutes washings with high-salt wash buffer (25 mM Tris-HCl buffer pH 7.4, 0.004% Triton, 1M NaCl and 5 mM DTT) and 3 more washes with TT-buffer. To these immobilized and purified proteins a tyrosine kinase substrate, 5 nM pEY (poly Glu-Tyr, Sigma, MO), was added in a 50 μl reaction solution containing 5 mM MgCl2, 5 mM MnCl2, 100 μM ATP, 25 mM Tris-HCl buffer pH 7.4, 0.05 mM Na3VO4, 0.004% TritonX-100, 2 mM DTT and EDTA-free protease inhibitor (Roche Molecular Biochemicals). This mixture was incubated with shaking at room temperature overnight to allow phosphorylation of the pEY substrate by the immobilized kinases. Following this incubation, 45 μl of this mixture was transferred to a streptavidin or avidin-coated NPT IPR plate coated with biotinylated anti-phosphotyrosine antibody (PY20, Zymed labs, CA) followed by incubation for 30 minutes at room temperature to allow the binding of the phosphorylated pEY substrate to the PY20 coated NPT plate. Following this binding step, 50 ng Sulfo-TAG labeled anti-phosphotyrosine in buffer containing 25 mM Tris-HCl buffer pH 7.4, 5 mM MgCl2, 0.05 mM Na3VO4, 0.004% TritonX-100, 2 mM DTT and 0.05% IgG was added followed by incubation at room temperature for 30 mm. The unbound reagents were removed by one time washing with water, and the TAG label was detected in presence of 150 μl IPR assay buffer (0.4 mM Gly-Gly buffer, pH 7.8, 1 mM EDTA, 0.1 M TPA). The ECL signals were measured using an imaging plate reader.
(§2) Proteins were produced using 100 ng of plasmid DNA Mock (Luciferase, Promega) or tyrosine kinases (Fert2 IMAGE ID # 4485050, FGFR1 IMAGE ID # 4037899, Fgfr2 IMAGE ID # 2654352, Src IMAGE ID # 3156400, BMX IMAGE ID # 3919253, LCK IMAGE ID # 4191610, Epha7 IMAGE ID # 3991628, Ephb4 IMAGE ID # 4013934, Tek IMAGE ID # 3482498, HCK IMAGE ID # 4778819, BTK IMAGE ID # 4478463, CSK IMAGE ID # 4398416, SYK IMAGE ID # 3870426, FGR IMAGE ID # 4419973, PTK2B IMAGE ID # 4339456, FRK(IMAGE ID # 4515877, Kit IMAGE ID # 2644960, Fgfr-4 IMAGE ID # 4239139, NTRK3 IMAGE ID # 4181574, Kdr IMAGE ID # 4238984, Incyte Genomics, CA) and immobilized on SA or avidin coated NPT-IPR plates as described in previous examples. The unbound components of the translation reaction (including any endogenous kinases) were removed by 3 washes with TT-buffer (25 mM Tris-HCl buffer pH 7.4 and 0.004% Triton), two five minutes washes with high-salt wash buffer (25 mM Tris-HCl buffer pH 7.4, 0.004% Triton, 1M NaCl and 5 mM DTT) and 3 washes with TT-buffer. […] The mixture was incubated at room temperature for 10 mm before starting the kinase reaction by adding 25 μl of 200 μM ATP in buffer A. This mixture was incubated with intermittent shaking at room temperature for 2 hours to overnight to allow (a) phosphorylation of the pEY substrate and (b) autophosphorylation of the immobilized kinases. Autophosphorylation and phosphorylation of the pEY was measured as described in Examples 7 and 8.
(§3) The ECL signal in control wells produced by tyrosine kinases was compared to the wells containing inhibitor compounds. The signal produced from Mock was negligible.

EphB4 = molecular target: T2, EphB4 (Mus musculus, UniProt P54761); experiment: Kinase inhibitor profiling, pEY phosphorylation; format: biochemical
T2 construct: specificity data for proteins generated from a library of eighteen full-length clones; host or cells: rabbit reticulocyte lysate, TnT coupled in vitro transcription/translation (cell-free)
T2 sequence (P54761 16-987): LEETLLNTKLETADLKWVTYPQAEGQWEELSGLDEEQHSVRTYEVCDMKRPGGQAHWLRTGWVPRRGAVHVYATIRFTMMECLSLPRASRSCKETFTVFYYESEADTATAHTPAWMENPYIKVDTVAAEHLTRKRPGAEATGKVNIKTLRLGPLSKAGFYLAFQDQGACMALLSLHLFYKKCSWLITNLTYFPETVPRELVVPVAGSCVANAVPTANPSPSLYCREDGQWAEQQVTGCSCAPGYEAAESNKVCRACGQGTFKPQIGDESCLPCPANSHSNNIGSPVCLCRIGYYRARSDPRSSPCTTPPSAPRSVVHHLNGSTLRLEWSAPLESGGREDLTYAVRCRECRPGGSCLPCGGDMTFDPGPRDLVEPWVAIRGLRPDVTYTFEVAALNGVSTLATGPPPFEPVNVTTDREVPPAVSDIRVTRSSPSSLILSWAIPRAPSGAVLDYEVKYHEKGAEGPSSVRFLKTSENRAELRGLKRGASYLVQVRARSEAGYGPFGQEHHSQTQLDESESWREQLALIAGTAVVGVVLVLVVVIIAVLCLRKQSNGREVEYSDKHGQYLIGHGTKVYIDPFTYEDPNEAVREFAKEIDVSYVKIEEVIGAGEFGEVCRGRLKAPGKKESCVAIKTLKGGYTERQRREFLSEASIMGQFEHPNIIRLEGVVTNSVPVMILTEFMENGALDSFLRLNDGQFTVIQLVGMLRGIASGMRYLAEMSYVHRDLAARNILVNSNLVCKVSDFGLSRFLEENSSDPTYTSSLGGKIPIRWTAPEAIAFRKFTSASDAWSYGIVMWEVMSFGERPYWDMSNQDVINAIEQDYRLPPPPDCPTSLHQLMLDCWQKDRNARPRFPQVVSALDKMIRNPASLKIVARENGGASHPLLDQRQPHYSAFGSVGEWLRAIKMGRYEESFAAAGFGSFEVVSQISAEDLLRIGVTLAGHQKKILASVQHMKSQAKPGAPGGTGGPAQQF
Procedure: as §1, §2, §3

Kit = molecular target: T3, Kit (Mus musculus, UniProt P05532); experiment: Kinase inhibitor profiling, pEY phosphorylation; format: biochemical
T3 construct: specificity data for proteins generated from a library of eighteen full-length clones; biotin on random lysines (biotin-Lys-tRNA); host or cells: rabbit reticulocyte lysate, coupled transcription/translation (TnT, Promega)
T3 sequence (P05532 25-979): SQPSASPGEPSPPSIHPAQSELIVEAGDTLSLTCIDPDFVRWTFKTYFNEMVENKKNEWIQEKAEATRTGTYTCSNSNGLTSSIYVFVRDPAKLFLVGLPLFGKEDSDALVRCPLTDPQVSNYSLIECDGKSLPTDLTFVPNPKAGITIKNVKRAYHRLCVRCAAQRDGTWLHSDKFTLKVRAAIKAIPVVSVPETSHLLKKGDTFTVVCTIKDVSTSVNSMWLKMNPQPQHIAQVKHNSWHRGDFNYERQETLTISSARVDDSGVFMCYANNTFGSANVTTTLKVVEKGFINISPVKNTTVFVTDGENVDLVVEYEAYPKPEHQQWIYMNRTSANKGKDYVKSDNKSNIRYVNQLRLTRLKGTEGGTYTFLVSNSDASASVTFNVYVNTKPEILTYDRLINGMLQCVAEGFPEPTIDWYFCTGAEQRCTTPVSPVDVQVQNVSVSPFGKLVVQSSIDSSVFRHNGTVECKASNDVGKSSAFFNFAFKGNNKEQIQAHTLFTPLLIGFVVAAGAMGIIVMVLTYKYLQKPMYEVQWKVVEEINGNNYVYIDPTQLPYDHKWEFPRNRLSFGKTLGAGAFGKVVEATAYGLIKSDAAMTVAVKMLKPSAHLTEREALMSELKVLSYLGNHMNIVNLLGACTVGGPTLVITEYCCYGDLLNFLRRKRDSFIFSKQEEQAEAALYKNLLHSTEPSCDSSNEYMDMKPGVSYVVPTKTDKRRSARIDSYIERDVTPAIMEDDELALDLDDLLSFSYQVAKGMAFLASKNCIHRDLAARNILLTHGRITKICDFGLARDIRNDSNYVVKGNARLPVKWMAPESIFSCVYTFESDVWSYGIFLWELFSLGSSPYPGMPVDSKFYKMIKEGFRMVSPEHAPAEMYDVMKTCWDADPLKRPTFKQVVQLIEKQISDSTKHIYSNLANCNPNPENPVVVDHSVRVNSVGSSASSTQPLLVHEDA
Procedure: as §1, §2, §3

FGFR2 = molecular target: T4, FGFR2 (Mus musculus, UniProt P21803); experiment: Kinase inhibitor profiling, pEY phosphorylation; format: biochemical
T4 construct: specificity data for proteins generated from a library of eighteen full-length clones; host or cells: rabbit reticulocyte lysate, TnT coupled in vitro transcription/translation (cell-free)
T4 sequence (P21803 22-821): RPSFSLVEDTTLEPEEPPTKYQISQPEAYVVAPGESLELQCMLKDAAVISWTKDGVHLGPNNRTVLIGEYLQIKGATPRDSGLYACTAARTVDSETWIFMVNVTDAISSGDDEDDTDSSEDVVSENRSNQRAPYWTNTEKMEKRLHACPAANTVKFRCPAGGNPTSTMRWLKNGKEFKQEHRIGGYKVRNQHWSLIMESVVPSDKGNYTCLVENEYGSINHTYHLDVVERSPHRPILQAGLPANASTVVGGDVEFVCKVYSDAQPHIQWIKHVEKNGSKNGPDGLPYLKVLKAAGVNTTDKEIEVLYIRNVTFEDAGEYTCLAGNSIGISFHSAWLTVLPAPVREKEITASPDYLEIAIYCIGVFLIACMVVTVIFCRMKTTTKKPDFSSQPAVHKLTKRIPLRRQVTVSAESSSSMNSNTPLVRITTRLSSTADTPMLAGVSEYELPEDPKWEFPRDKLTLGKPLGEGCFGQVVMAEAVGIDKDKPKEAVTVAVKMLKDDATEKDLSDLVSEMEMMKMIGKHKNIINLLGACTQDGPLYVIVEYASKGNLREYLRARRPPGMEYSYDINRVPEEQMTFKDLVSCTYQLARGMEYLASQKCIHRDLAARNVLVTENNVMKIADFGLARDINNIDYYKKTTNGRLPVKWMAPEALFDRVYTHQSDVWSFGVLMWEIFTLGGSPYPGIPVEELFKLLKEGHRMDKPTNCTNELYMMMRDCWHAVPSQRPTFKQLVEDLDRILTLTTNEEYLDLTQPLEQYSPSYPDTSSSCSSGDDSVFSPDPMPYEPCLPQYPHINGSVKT
Procedure: as §1, §2, §3

Molecule	IC50 [1] [µM]	Inhibition specificity towards pEY phosphorylation at 10X IC50, Fgfr4 (Fgfr4)	Inhibition specificity towards pEY phosphorylation at 10X IC50, EphB4 (EphB4)	Inhibition specificity towards pEY phosphorylation at 10X IC50, Kit (Kit)	Inhibition specificity towards pEY phosphorylation at 10X IC50, FGFR2 (FGFR2)
Cc1ccc(-c2nn(C(C)(C)C)c3ncnc(N)c23)cc1 [PP1]	0.6	M (medium inhibition (“M”=between 25 to 50% of the activity remaining))	L (low inhibition (“L”=between 50–75% of the activity remaining))	M (medium inhibition (“M”=between 25 to 50% of the activity remaining))	–
COC(=O)c1ccc(NCc2cc(O)ccc2O)cc1 [AG-957]	0.75	–	L (low inhibition (“L”=between 50–75% of the activity remaining))	L (low inhibition (“L”=between 50–75% of the activity remaining))	L (low inhibition (“L”=between 50–75% of the activity remaining))
COc1cc2ncnc(Nc3ccc(O)cc3)c2cc1OC [WHI-P131]	7.8	L (low inhibition (“L”=between 50–75% of the activity remaining))	M (medium inhibition (“M”=between 25 to 50% of the activity remaining))	H (high inhibition (“H”=less than 25% of the activity remaining))	L (low inhibition (“L”=between 50–75% of the activity remaining))
COc1cc2ncnc(Nc3ccc(Cl)cc3F)c2cc1OC [VEGFR inhibitor]	2	L (low inhibition (“L”=between 50–75% of the activity remaining))	M (medium inhibition (“M”=between 25 to 50% of the activity remaining))	L (low inhibition (“L”=between 50–75% of the activity remaining))	L (low inhibition (“L”=between 50–75% of the activity remaining))
Cc1cc2ncc(-c3ccc(O)c(O)c3)nc2cc1C [AG-1433]	5	H (high inhibition (“H”=less than 25% of the activity remaining))	H (high inhibition (“H”=less than 25% of the activity remaining))	H (high inhibition (“H”=less than 25% of the activity remaining))	H (high inhibition (“H”=less than 25% of the activity remaining))
Erbstatin analog	0.78	–	L (low inhibition (“L”=between 50–75% of the activity remaining))	L (low inhibition (“L”=between 50–75% of the activity remaining))	–
COc1c(C=O)c(O)cc2c1C(=O)c1ccccc1C2=O [Damnacanthal]	0.62	H (high inhibition (“H”=less than 25% of the activity remaining))	H (high inhibition (“H”=less than 25% of the activity remaining))	H (high inhibition (“H”=less than 25% of the activity remaining))	H (high inhibition (“H”=less than 25% of the activity remaining))
CC(C)(C)c1cc(C=C(C#N)C#N)cc(Br)c1O [AG-1024]	18	M (medium inhibition (“M”=between 25 to 50% of the activity remaining))	L (low inhibition (“L”=between 50–75% of the activity remaining))	L (low inhibition (“L”=between 50–75% of the activity remaining))	L (low inhibition (“L”=between 50–75% of the activity remaining))
